The results in this text go back to EP4095134A1, “POLYCYCLIC COMPOUNDS FOR THE TREATMENT OF NEUROLOGICAL INDICATIONS” (UCL Business Ltd, priority 2021, dated 2022).

In series [1] the target is T1, P2Y1 receptor (Homo sapiens, UniProt P47900).
T1 construct: expressed in transfected cells
As to the kind of experiment: P2Y1 IP1 accumulation HTRF assay, antagonism of agonist MRS2365 in stably transfected cells. It counts as cell-based. Conditions: Example 2 table; as for example 1. In short, it runs like this:
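HTRF IP1 accumulation in stably P2Y1-overexpressing cells, plated the day before. Compounds pre-incubated 1 hour (10-point semi-log curve from 10µM, 0.1% DMSO), then 5nM MRS2365 added for 60 minutes, both at 37°C / 5% CO2. IP1 interpolated from standard curve; IC50 from N ≥ 4 runs.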

Series [2] in a line: CNS penetration, intravenous cassette dosing, brain and plasma by LC-MS/MS. It counts as in vivo, C57B16/J mice. Conditions: mouse, iv (0.4 mg/kg), t = 2 hr. As to the method: To assess penetration of compounds into the mouse central nervous system, intravenous pharmacokinetic studies were undertaken in C57B16/J mice. In each study, up to five compounds were formulated in a vehicle comprising DMSO, Kolliphor EL and HPCD (20% w/v) to a final dose for each compound of 0.4mg/kg. Compounds were then combined into a single dosing solution and administered together via the intravenous route into 24 mice. Total compound dose administered to each mouse was 2mg/kg. Mice were culled at 0.08, 0.25, 0.5, 1, 2, 4, 8 and 24 hours post dosing, and brain and plasma collected for bioanalysis.
For bioanalysis, compounds were prepared in DMSO and aliquoted together to ensure a final concentration of 1mg/mL per compound in DMSO. Analytical standards were prepared from the initial 1mg/mL stock solution of compound, with a 12-point standard curve range from 0.5ng/mL to 2000ng/mL, with independent quality control tests from 1ng/mL to 1000ng/mL run to validate the standards. All standards and QC samples were matrix matched to eliminate possible suppression. Plasma samples were prepared with a 1:10 dilution in plasma. […]
Supernatents were analysed by LC-MS/MS. […]
To establish CNS penetration, the ratio of the concentration of each compound in the […] was assessed.

T1 sequence (P47900 whole entry): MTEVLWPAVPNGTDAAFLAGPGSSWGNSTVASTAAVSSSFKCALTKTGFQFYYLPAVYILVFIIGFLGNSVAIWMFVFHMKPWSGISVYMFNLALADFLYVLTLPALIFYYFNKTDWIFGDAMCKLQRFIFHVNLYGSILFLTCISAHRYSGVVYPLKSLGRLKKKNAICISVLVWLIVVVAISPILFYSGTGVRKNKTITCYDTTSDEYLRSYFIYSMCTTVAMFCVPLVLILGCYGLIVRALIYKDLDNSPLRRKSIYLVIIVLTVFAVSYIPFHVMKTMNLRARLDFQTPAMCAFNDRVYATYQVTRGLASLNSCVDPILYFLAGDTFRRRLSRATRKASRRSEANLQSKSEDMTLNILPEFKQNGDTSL

Molecule `CC1(C)CN(c2ccccc2NC(=O)Nc2ccc(OC(F)(F)F)cc2)c2c(O)ccc(-c3ccc(Cl)cc3)c21` [RS 1, 1-(2-(4-(4-chlorophenyl)-7-hydroxy-3,3-dimethylindolin-1-yl)phenyl)-3-(4-(trifluoromethoxy)phenyl)urea, reference compound] had an IC50 in series [1] of 33 nM. For the same molecule, the “CNS penetration: total brain to plasma ratio” value in series [2] is “BLLQ^d iv”.

Turning to `Cc1ccc(NC(=O)Nc2ccc(OC(F)(F)F)cc2)c(Oc2ccccc2C(C)(C)C)n1` [RS2, 1-(2-(2-(tert-butyl)phenoxy)-6-methylpyridin-3-yl)-3-(4-(trifluoromethoxy)phenyl)urea], the “CNS penetration: total brain to plasma ratio” value in series [2] is on record as “BLLQ^d iv”.
